{"source": "patent US20250312469A1", "about": "(CANGET BIOTEKPHARMA, priority 2024, published 2025)", "key": {"[1]": {"test": "Plasma protein binding (RED)", "conditions": "both, human, % Bound of Plasma, Test Article (FL118), 37° C."}, "[2]": {"target": "DDX5 (Homo sapiens, UniProt P17844)", "sequence (P17844 whole entry)": "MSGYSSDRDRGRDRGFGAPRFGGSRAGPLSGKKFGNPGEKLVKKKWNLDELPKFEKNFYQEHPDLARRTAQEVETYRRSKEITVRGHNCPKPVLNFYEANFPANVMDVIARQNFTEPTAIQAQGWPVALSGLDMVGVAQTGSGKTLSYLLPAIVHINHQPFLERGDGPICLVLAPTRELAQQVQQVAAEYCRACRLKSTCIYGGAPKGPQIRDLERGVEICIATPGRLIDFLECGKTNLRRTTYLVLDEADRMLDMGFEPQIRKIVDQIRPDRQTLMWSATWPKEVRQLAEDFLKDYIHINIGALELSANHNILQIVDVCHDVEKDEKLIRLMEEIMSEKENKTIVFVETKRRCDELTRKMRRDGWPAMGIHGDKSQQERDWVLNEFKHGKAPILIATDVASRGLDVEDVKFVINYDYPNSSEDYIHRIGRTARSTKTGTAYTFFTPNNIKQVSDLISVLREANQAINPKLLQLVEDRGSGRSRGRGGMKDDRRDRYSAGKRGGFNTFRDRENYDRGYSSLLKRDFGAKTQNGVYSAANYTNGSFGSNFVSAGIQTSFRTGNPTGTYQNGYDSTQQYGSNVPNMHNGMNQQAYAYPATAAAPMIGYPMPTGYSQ", "test": "Immunoprecipitation/Western blot of DDX5 in Mia Paca-2 and SW620 cells", "format": "cell-based", "design": "endogenous in cells; Mia Paca-2 and SW620 (IP/Western)", "procedure": "Up to 10^7 cells for each time point/test were harvested with a scraper in cold PBS buffers and collected by centrifugation at 1000g×5 min and washed with cold PBS once. Cell pellets were lysed in 1 mL cold RIPA lysis buffer containing proteinase inhibitors (refer to Western blots). The cell lysates were precleared with centrifuging 14,000 rpm for 15 min. The resulting supernatants were transferred to a new 1.5 ml tube and incubated with up to 3 μg either DDX5 antibodies or normal IgG antibodies for 1 h at 4° C., followed by incubation with 20-40 μL 50% protein A/G-Agarose slurry overnight at 4° C. on a rocker platform. […]\nFor frozen prostate cancer tissue specimens and their adjacent non-tumor tissues (if any) obtained from Roswell Park pathology network, 30-50 mg of each tissue in a 1.5 Eppendorf tube containing 500 μL of 2×SDS lysis buffer containing Tris pH 6.8+4% SDS+10% Glycerol were homogenized through ultrasound treatment for 10-15 second per time with 3-6 times until tumor tissue was lysed. […] Proteins of interest were detected using Western Lightning ECL-Plus (Perkin Elmer, Waltham, MA) and visualized by various times (3-120 seconds) of exposure. Actin, tubulin and/or GAPDH were detected as the internal control to normalize total protein loading for each sample."}, "[3]": {"test_system": "CYP1A2 mRNA", "test": "CYP induction (mRNA) in fresh human hepatocytes", "from_the_text": "(§1) (2) CYP positive inducers (Table 58a) and Williams' Medium E (WME) were purchased from Sigma-Aldrich (St. Louis, MO, USA). Dulbecco's phosphate-buffered saline (DPBS, pH 7.4) was purchased from Invitrogen (Carlsbad, CA, USA). Hepatocyte culture medium (serum-free) for CYP induction was purchased from XenoTech (catalog #K2300, Lenexa, KS, USA). The CellTiter 96 AQueous ONE Solution Cell Proliferation Assay was obtained from Promega (Madison, WI, USA). All other chemicals and reagents were of analytical grade or higher. (3) Fresh human hepatocytes (Table 58b) seeded at ˜0.15 million cells/well in 48-well plates (˜0.75 million cells/mL) were purchased from Thermo Fisher Scientific (Grand Island, NY, USA) and BioreclamationIVT (Baltimore, MD, USA).\n(§2) Vehicle controls were treated in parallel with hepatocyte culture medium. […] (2) After the CYP induction treatment, the cells were used for a cell viability assay. […] The absorbance of formazan, which is proportional to the number of viable cells, was measured spectrophotometrically using the CellTiter 96 AQueous ONE Solution Cell Proliferation Assay. […] (3) Total RNA was isolated from the treated cells using the RNeasy mini kit (Qiagen, Valencia, CA, USA) and treated with RNase-free DNase (Qiagen) following the manufacturer's protocols. The concentration of RNA was determined using a Qubit Fluorometer with a Qubit RNA HS assay kit (Invitrogen). cDNA was synthesized from up to 1 μg of the total RNA harvested from the cells using a QuantiTect RT kit (Qiagen). Analysis of gene expression by qPCR was performed using the LightCycler 480 System (Roche Diagnostics Corporation, Indianapolis, IN, USA)."}, "[4]": {"test_system": "CYP2B6 mRNA", "test": "CYP induction (mRNA) in fresh human hepatocytes", "from_the_text": "as §1, §2"}}, "data": [{"smiles": "CCC1(O)C(=O)OCc2c1cc1n(c2=O)Cc2cc3cc4c(cc3nc2-1)OCO4", "note": "(stereo not drawn) [FL118]", "values": [{"measurement": "fraction unbound at 4 h, 1 μM", "setting": "[1]", "value": "< 0.01"}, {"measurement": "DDX5 phosphorylation on tyrosine", "setting": "[2]; 6h", "value": "eliminates DDX5 phosphorylation"}, {"measurement": "DDX5 protein", "setting": "[2]; 24h", "value": "inhibits DDX5 proteins"}, {"measurement": "% of OME-treated Cells", "setting": "[3]; donor 1, 0.01 μM", "value": 0.15, "unit": "%"}, {"measurement": "induction of CYP1A2 mRNA", "setting": "[3]; donor 1, 0.01 μM", "value": "< 2", "unit": "fold"}, {"measurement": "% of OME-treated Cells", "setting": "[3]; donor 1, 0.1 μM", "value": 1.1, "unit": "%"}, {"measurement": "induction of CYP1A2 mRNA", "setting": "[3]; donor 1, 0.1 μM", "value": 2.0, "unit": "fold"}, {"measurement": "% of OME-treated Cells", "setting": "[3]; donor 1, 1 μM", "value": 2.6, "unit": "%"}, {"measurement": "induction of CYP1A2 mRNA", "setting": "[3]; donor 1, 1 μM", "value": 3.4, "unit": "fold"}, {"measurement": "% of OME-treated Cells", "setting": "[3]; donor 2, 0.001 μM", "value": 0.88, "unit": "%"}, {"measurement": "induction of CYP1A2 mRNA", "setting": "[3]; donor 2, 0.001 μM", "value": 2.3, "unit": "fold"}, {"measurement": "% of OME-treated Cells", "setting": "[3]; donor 2, 0.005 μM", "value": 1.0, "unit": "%"}, {"measurement": "induction of CYP1A2 mRNA", "setting": "[3]; donor 2, 0.005 μM", "value": 2.5, "unit": "fold"}, {"measurement": "% of OME-treated Cells", "setting": "[3]; donor 2, 0.01 μM", "value": 2.6, "unit": "%"}, {"measurement": "induction of CYP1A2 mRNA", "setting": "[3]; donor 2, 0.01 μM", "value": 4.9, "unit": "fold"}, {"measurement": "% of OME-treated Cells", "setting": "[3]; donor 3, 0.025 μM", "value": 1.6, "unit": "%"}, {"measurement": "induction of CYP1A2 mRNA", "setting": "[3]; donor 3, 0.025 μM", "value": 2.0, "unit": "fold"}, {"measurement": "% of OME-treated Cells", "setting": "[3]; donor 3, 0.05 μM", "value": 1.6, "unit": "%"}, {"measurement": "induction of CYP1A2 mRNA", "setting": "[3]; donor 3, 0.05 μM", "value": 2.1, "unit": "fold"}, {"measurement": "% of PB-treated Cells", "setting": "[4]; Donor 1, 0.01 μM, negative values treated as zero", "value": 0, "unit": "%"}, {"measurement": "% of PB-treated Cells", "setting": "[4]; Donor 1, 0.1 μM, negative values treated as zero", "value": 0, "unit": "%"}, {"measurement": "% of PB-treated Cells", "setting": "[4]; Donor 1, 1 μM, negative values treated as zero", "value": 0, "unit": "%"}, {"measurement": "% of PB-treated Cells", "setting": "[4]; Donor 3, 0.025 μM, negative values treated as zero", "value": 0, "unit": "%"}, {"measurement": "% of PB-treated Cells", "setting": "[4]; Donor 3, 0.05 μM, negative values treated as zero", "value": 0, "unit": "%"}, {"measurement": "induction of CYP2B6 mRNA", "setting": "[4]; donor 1, 0.01, 0.1, 1 μM", "value": "did not increase CYP2B6 mRNA"}, {"measurement": "% of PB-treated Cells", "setting": "[4]; donor 2, 0.001 μM", "value": 0.70, "unit": "%"}, {"measurement": "% of PB-treated Cells", "setting": "[4]; donor 2, 0.005 μM", "value": 0.43, "unit": "%"}, {"measurement": "% of PB-treated Cells", "setting": "[4]; donor 2, 0.01 μM", "value": 0.11, "unit": "%"}, {"measurement": "induction of CYP2B6 mRNA", "setting": "[4]; donor 2, 0.001, 0.005, 0.01 μM", "value": "did not increase CYP2B6 mRNA"}, {"measurement": "induction of CYP2B6 mRNA", "setting": "[4]; donor 3, 0.025, 0.05 μM", "value": "did not increase CYP2B6 and CYP3A4 mRNA"}]}]}
